According to US12059420B2 (BRISTOL-MYERS SQUIBB COMPANY, priority 2018, dated 2024):
Counter-ions that a name gives are not always drawn.

Target: T1, human IDO1 (Homo sapiens, UniProt P14902)
T1 construct: expressed in transfected cells
Assay: IDO inhibition assay in HEK293 cells stably expressing human IDO1 (kynurenine production, Ehrlich reagent, absorbance 490 nm)
Assay type: cell-based
Details: 20 hours incubation with compound, 500 nM reference standard = 100% inhibition, read-out: IDO1 HEK Human IC50
Experimental: HEK293 cells were transfected with a pCDNA-based mammalian expression vector harboring human IDO1 cDNA (NM 002164.2) by electroporation. They were cultured in medium (DMEM with 10% FBS) containing 1 mg/ml G418 for two weeks. Clones of HEK293 cells that stably expressed human IDO1 protein were selected and expanded for IDO inhibition assay.
The human IDO1/HEK293 cells were seeded at 10,000 cells per 50 μL per well with RPMI/phenol red free media contains 10% FBS in a 384-well black wall clear bottom tissue culture plate (Matrix Technologies LLC) 100 nL of certain concentration of compound was then added to each well using ECHO liquid handling systems. The cells were incubated for 20 hours in 37° C. incubator with 5% CO2.
The compound treatments were stopped by adding trichloroacetic acid (Sigma-Aldrich) to a final concentration at 0.2%. The cell plate was further incubated at 50° C. for 30 minute. The equal volume supernatant (20 μL) and 0.2% (w/v) Ehrlich reagent (4-dimethylaminobenzaldehyde, Sigma-Aldrich) in glacial acetic acid were mixed in a new clear bottom 384-well plate. This plate was then incubated at RT for 30 minute. The absorbance at 490 nm was measured on Envision plate reader.
Compound IC50 values were calculated using the counts of 500 nM of a reference standard treatment as one hundred percent inhibition, and counts of no compound but DMSO treatment as zero percent inhibition.

T1 sequence (P14902 whole entry): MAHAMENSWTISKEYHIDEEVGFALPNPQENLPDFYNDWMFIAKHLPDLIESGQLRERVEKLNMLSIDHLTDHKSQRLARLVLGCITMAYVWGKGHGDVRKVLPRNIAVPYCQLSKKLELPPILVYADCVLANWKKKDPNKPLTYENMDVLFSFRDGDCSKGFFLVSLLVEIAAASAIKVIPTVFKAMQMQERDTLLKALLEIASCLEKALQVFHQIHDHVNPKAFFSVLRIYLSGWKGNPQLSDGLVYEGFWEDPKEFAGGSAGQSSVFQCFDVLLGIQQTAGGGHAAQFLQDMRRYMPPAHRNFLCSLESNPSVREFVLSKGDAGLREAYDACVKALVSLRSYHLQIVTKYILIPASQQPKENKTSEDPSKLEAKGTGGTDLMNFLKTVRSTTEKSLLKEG

SMILES	IC50 [nM]
CCCN(Cc1ccccc1)c1cc(NC(=O)Nc2ccc(Cl)cc2Cl)cc(-c2cc(C)ccc2-c2nnn[nH]2)n1 [Example 302, 1-(2-(Benzyl(propyl)amino)-6-(5-methyl-2-(1H-tetrazol-5-yl)phenyl)pyridin-4-yl)-3-(2,4-dichlorophenyl)urea]	5.5
Cc1ccc(CC(=O)Nc2cc(-c3ccccc3-c3nnn[nH]3)nc(N(Cc3ccc(F)cc3)CC(C)C)c2)cc1 [Example 90, N-(2-(2-(1H-tetrazol-5-yl)phenyl)-6-((4-fluorobenzyl)(isobutyl)amino)pyridin-4-yl)-2-(p-tolyl)acetamide, TFA]	40.9
CCCN(Cc1ccccc1)c1cc(NC(=O)Nc2ccc(C)cc2)cc(-c2ccccc2-c2nsc(=O)[nH]2)n1 [Example 14, 1-(2-(benzyl(propyl)amino)-6-(2-(5-oxo-4,5-dihydro-1,2,4-thiadiazol-3-yl)phenyl)pyridin-4-yl)-3-(p-tolyl)urea]	181
CCCN(CC1CC1)c1cc(Nc2ncc(C(F)(F)F)cn2)cc(-c2ccccc2-c2nnn[nH]2)n1 [Example 84]	373
CCCN(Cc1ccccc1)c1cc(NC(=O)Nc2ccc(C)cc2)cc(-c2ccccc2-c2nc(=O)o[nH]2)n1 [Example 31, 1-(2-(benzyl (propyl)amino)-6-(2-(5-oxo-4,5-dihydro-1,2,4-oxadiazol-3-yl)phenyl)pyridin-4-yl)-3-(p-tolyl) urea]	13.9
CCC(CC(=O)O)c1cc(Nc2ccc(Cl)cc2)cc(N(Cc2ccccc2)CC(C)C)n1 (racemic) [Example 245, 3-(6-(benzyl(isobutyl)amino)-4-((4-chlorophenyl)amino)pyridin-2-yl)pentanoic acid]	47.5
CCCN(Cc1ccccc1)c1cc(NC(=O)Cc2c[nH]cn2)cc(-c2ccccc2-c2nn[nH]n2)n1 [Example 207, N-(2-(2-(2H-tetrazol-5-yl)phenyl)-6-(benzyl(propyl)amino)pyridin-4-yl)-2-(1H-imidazol-4-yl)acetamide]	3430
CCCN(Cc1ccccc1)c1cc(NC(=O)Cc2ccc(C)cc2)cc(-c2ccccc2-c2nc(=O)o[nH]2)n1 [Example 28, N-(2-(benzyl (propyl)amino)-6-(2-(5-oxo-2,5-dihydro-1,2,4-oxadiazol-3-yl)phenyl)pyridin-4-yl)-2-(p-tolyl)acetamide]	80.1
CCCN(Cc1ccccc1)c1cc(NC(=O)Nc2ccc(C)cc2)cc(-c2ccccc2S(=O)(=O)NC(=O)c2ccccc2)n1 [Example 32, N-((2-(6-(benzyl (propyl)amino)-4-(3-(p-tolyl)ureido)pyridin-2-yl)phenyl)sulfonyl) benzamide]	4100
CCCN(Cc1ccccc1)c1cc(NC(=O)Nc2cc(C)cc(C)c2)cc(-c2ccccc2-c2nnn[nH]2)n1 [Example 263, 1-(2-(2-(1H-tetrazol-5-yl)phenyl)-6-(benzyl(propyl)amino)pyridin-4-yl)-3-(3,5-dimethylphenyl)urea]	145
CCCN(c1cc(NC(=O)Nc2ccc(C)cc2)cc(-c2ccccc2-c2nnn[nH]2)n1)C1CCC(C)(C)CC1 [Example 119, 1-(2-(2-(1H-tetrazol-5-yl)phenyl)-6-((4,4-dimethylcyclohexyl) (propyl)amino)pyridin-4-yl)-3-(p-tolyl)urea]	2010
CCCN(Cc1ccccc1)c1cc(NC(=O)Cc2ccc(C)cc2)cc(-c2ccccc2C(N)=O)n1 [Example 29]	616
CCCN(Cc1ccccc1)c1cc(NC(=O)Cc2cc(OC)cc(OC)c2)cc(-c2ccccc2-c2nn[nH]n2)n1 [Example 208, N-(2-(2-(2H-tetrazol-5-yl)phenyl)-6-(benzyl(propyl)amino)pyridin-4-yl)-2-(3,5-dimethoxyphenyl)acetamide]	544
CCCN(Cc1ccccc1)c1cc(NC(=O)Cc2ccc(C)cc2)cc(-c2ccccc2C(=O)NS(C)(=O)=O)n1 [Example 21, 2-(6-(benzyl(propyl)amino)-4-(2-(p-tolyl)acetamido)pyridin-2-yl)-N-(methylsulfonyl)benzamide]	328
CCCN(Cc1ccc(F)cc1)c1cc(NC(=O)Nc2ccc(Cl)cc2Cl)cc(-c2ccccc2-c2nnn[nH]2)n1 [Example 86, 1-(2-(2-(1H-tetrazol-5-yl)phenyl)-6-((4-fluorobenzyl)(propyl)amino)pyridin-4-yl)-3-(2,4-dichlorophenyl)urea]	8.6
CCCN(Cc1ccccc1)c1cc(NC(=O)Cc2cn(C)c3ccccc23)cc(-c2ccccc2-c2nn[nH]n2)n1 [Example 221, N-(2-(2-(2H-tetrazol-5-yl)phenyl)-6-(benzyl(propyl)amino)pyridin-4-yl)-2-(1-methyl-1H-indol-3-yl)acetamide]	249
CCCN(CC1CC1)c1cc(NC(=O)Cc2ccc(C)cc2F)cc(-c2ccccc2-c2nnn[nH]2)n1 [Example 82, N-(2-(2-(1H-tetrazol-5-yl)phenyl)-6-((cyclopropylmethyl)(propyl)amino)pyridin-4)-2-(2-fluoro-4-methylphenyl)acetamide, TFA]	731
Cc1ccc(CC(=O)Nc2cc(-c3ccccc3-c3nnn[nH]3)nc(N3CCN(Cc4ccccc4)C(=O)C3)n2)cc1 [Example 97, N-(6-(2-(1H-tetrazol-5-yl)phenyl)-2-(4-benzyl-3-oxopiperazin-1-yl)pyrimidin-4-yl)-2-(p-tolyl)acetamide]	1150
CCC(CC(=O)O)c1cc(NC(=O)Nc2ccc(C)cc2)cc(N(Cc2ccc(F)cc2)CC(C)C)n1 (single isomer, unassigned) [Example 250, 3-(6-((4-fluorobenzyl)(isobutyl)amino)-4-(3-(p-tolyl)ureido)pyridin-2-yl)pentanoic acid]	156

Next, values leading:

IC50 [nM]	SMILES
566	CC(C)CN(Cc1ccccc1)c1cc(NC(=O)Nc2ccc(OC(F)(F)F)cc2)cc(-c2ccccc2-c2nnn[nH]2)n1 [Example 239, 1-(2-(2-(1H-tetrazol-5-yl)phenyl)-6-(benzyl(isobutyl)amino)pyridin-4-yl)-3-(4-(trifluoromethoxy)phenyl)urea]
400	CC(C)CN(Cc1ccccc1)c1cc(NC(=O)Cc2ccc(OC(F)(F)F)cc2)cc(-c2ccccc2-c2nnn[nH]2)n1 [Example 235, N-(2-(2-(1H-tetrazol-5-yl)phenyl)-6-(benzyl(isobutyl)amino)pyridin-4-yl)-2-(4-(trifluoromethoxy)phenyl)acetamide]
665	CC(C)CN(Cc1ccccc1)c1cc(Nc2ccc(C(N)=O)cc2)cc(-c2ccccc2-c2nnn[nH]2)n1 [Example 144, 4-((2-(2-(1H-tetrazol-5-yl)phenyl)-6-(benzyl(isobutyl)amino)pyridin-4-yl)amino)benzamide]
2.1	Cc1nc2ccc(Nc3cc(-c4ccccc4-c4nnn[nH]4)nc(N(Cc4ccccc4)CC(C)C)c3)cc2s1 [Example 161, 6-(2-(1H-tetrazol-5-yl)phenyl)-N2-benzyl-N2-isobutyl-N4-(2-methylbenzo[d]thiazol-6-yl)pyridine-2,4-diamine]
17.5	CC(C)CN(Cc1ccccc1)c1cc(Nc2ccccc2Cl)cc(-c2ccccc2-c2nnn[nH]2)n1 [Example 177, 6-(2-(1H-tetrazol-5-yl)phenyl)-N2-benzyl-N4-(2-chlorophenyl)-N2-isobutylpyridine-2,4-diamine]
31.2	CC(C)CN(Cc1ccc(F)cc1)c1cc(Nc2nc3ccccc3s2)cc(-c2ccccc2-c2nnn[nH]2)n1 [Example 43, 6-(2-(1H-tetrazol-5-yl)phenyl)-N4-(benzo[d]thiazol-2-yl)-N2-(4-fluorobenzyl)-N2-isobutylpyridine-2,4-diamine, TFA]
17.6	CCCc1cnc(Nc2cc(-c3ccccc3-c3nnn[nH]3)nc(N(Cc3ccccc3)CC(C)C)c2)nc1 [Example 149, 6-(2-(1H-tetrazol-5-yl)phenyl)-N2-benzyl-N2-isobutyl-N4-(5-propylpyrimidin-2-yl)pyridine-2,4-diamine]
26.8	CCN(Cc1ccccc1)c1cc(NC(=O)Nc2ccc(C)cc2)cc(-c2ccccc2-c2nnn[nH]2)n1 [Example 274, 1-(2-(2-(1H-Tetrazol-5-yl)phenyl)-6-(benzyl(ethyl)amino)pyridin-4-yl)-3-(p-tolyl)urea]
7	COc1cccc(Nc2cc(-c3ccccc3-c3nnn[nH]3)nc(N(Cc3ccccc3)CC(C)C)c2)c1 [Example 196, 6-(2-(1H-tetrazol-5-yl)phenyl)-N2-benzyl-N2-isobutyl-N4-(3-methoxyphenyl)pyridine-2,4-diamine]
14.1	CC(C)CN(Cc1ccccc1)c1cc(Nc2cccc(OC(F)(F)F)c2)cc(-c2ccccc2-c2nnn[nH]2)n1 [Example 193, 6-(2-(1H-tetrazol-5-yl)phenyl)-N2-benzyl-N2-isobutyl-N4-(3-(trifluoromethoxy)phenyl)pyridine-2,4-diamine]
191	CC(C)CN(Cc1ccccc1)c1cc(Nc2nnc(-c3ccccc3)s2)cc(-c2ccccc2-c2nnn[nH]2)n1 [Example 52, 6-(2-(1H-tetrazol-5-yl)phenyl)-N2-benzyl-N2-isobutyl-N4-(5-phenyl-1,3,4-thiadiazol-2-yl)pyridine-2,4-diamine]
5.8	COc1cc(F)cc(Nc2cc(-c3ccccc3-c3nnn[nH]3)nc(N(Cc3ccccc3)CC(C)C)c2)c1 [Example 197, 6-(2-(1H-tetrazol-5-yl)phenyl)-N2-benzyl-N4-(3-fluoro-5-methoxyphenyl)-N2-isobutylpyridine-2,4-diamine]
